What all share (assay type): cell-based, human
One assay has as its system HCT-116^+/+. Kind of assay: MTT viability assay, HCT-116+/+. As to conditions: 72 h of exposure, functional p53, mean of six replicates of one experiment, read-out: IC50 Cancer Cell Lines (C) HCT-116+/+. The protocol:
(§1) HCT-116 (CCL-247), LoVo (CCL-229), DLD-1 (CCL-221), HT-29 (HTB-38) and CoN (CCD-841) human CRC cells were obtained from the ATCC (Manassas, VA, USA). HCT-116 cells were cultured in Dulbecco’s Modified Eagle’s Medium (DMEM; Corning Cellgro, Corning, NY, USA) for the invasion assays or RPMI-1640 medium (Lonza, Westburg, The Netherlands) for all other assays. The LoVo, DLD-1, and HT-29 cell lines were grown in RPMI-1640 for all experiments. Media were supplemented with 10% fetal bovine serum (FBS; Gibco, Waltham, MA, USA or Greiner Bio-One, Vilvoorde, Belgium), 100 U/mL penicillin, and 100 µg/mL streptomycin (Gibco, Waltham, MA). Cells were grown at 37 °C and 5% CO2 in a humidified atmosphere. The CoN cells were cultured in Eagle’s Minimum Essential Medium (Lonza, Westburg, The Netherlands) supplemented with 10% FBS (South America origin, Greiner Bio-One, Vilvoorde, Belgium). HCT-116 p53^-/- cells were obtained from Denis L.J. LaFontaine, Université Libre de Bruxelles, Brussels, Belgium.
(§2) Effects of compounds on viability were assessed by means of 3-(4,5-dimethylthiazol-2-yl)-2,5-diphenyltetrazolium bromide (MTT; Sigma-Aldrich, Diegem, Belgium) colorimetric assay as previously reported. Briefly, cells were seeded in flat-bottom 96-well plates at the appropriate cell density 24 h prior to the exposure or not to the compound of interest. Each compound was first solubilized in dimethylsulfoxide (DMSO) at 10^−2 M concentration and further diluted in a serial manner in the culture medium. Nine concentrations ranging from 10 nM to 100 µM were tested in sextuplicate within the assay. Evaluation of the cell viability was conducted after 72 h of exposure to the compound by means of MTT assay.
On the technique in general: Formazan colour is commonly taken as a measure of viable cells.

A further assay relates to HCT-116^-/-. The assay is described as follows: MTT viability assay, HCT-116-/- (p53-null). The conditions noted are these: 72 h of exposure, mean of six replicates of one experiment, read-out: IC50 Cancer Cell Lines (C) HCT-116-/-. Here is the method: as §1, §2
The next assay deals with DLD-1. The assay is described as follows: MTT viability assay, DLD-1. The conditions noted are these: 72 h of exposure, TP53 mutant, mean of six replicates of one experiment, read-out: IC50 Cancer Cell Lines (C) DLD-1. The protocol:
as §1, §2

For another assay, the system named is HCT-116 cells. Kind of assay: Invasion assay, Matrigel-coated Boyden chambers, HCT-116. The conditions noted are these: 24 h, corrected for adherent cells. Here is the method:
Prior to seeding HCT-116 cells in the invasion chambers, the medium was removed and cells were washed twice with phosphate buffered saline and incubated in DMEM lacking FBS for 48 h before seeding at a density of 1 × 10^5 cells/well into the upper portion of Matrigel-coated invasion chambers (Corning Biocoat, Corning, NY, USA), as described previously by our group in [47, 48]. The upper portion of each chamber contained cells suspended in serum-free DMEM containing DMSO vehicle alone or increasing concentrations of the Amaryllidaceae alkaloids NAR, LYC, and HAE. […] The lower portion of each chamber contained DMEM supplemented with 10% FBS. The FBS served as a chemoattractant. A polyethylene terephthalate (PET) membrane, containing 8 μm pores and coated with Matrigel basement membrane matrix, separated the upper and lower portions of the invasion chamber. After 24 h, chambers were removed and the cells that had not invaded were removed from within the chamber using a cotton swab. The cells that had invaded through and adhered to the bottom of the PET membrane separating the chambers were fixed with methanol and stained with 0.5% crystal violet (Sigma-Aldrich, St. Louis, MO, USA). Five random images were taken of the bottom of each membrane using a Cytation 5 Cell Imaging Multi-Mode Reader (Winooski, VT, USA). The cells in each image were counted using Image J (NIH, Bethesda, MD, USA).
To correct for the inhibitory effects of the Amaryllidaceae alkaloids on cell proliferation, cells from the same biological repeat were seeded in parallel in 24-well tissue culture plates at a density of 1 × 10^5 cells/well in DMEM containing 5% FBS (the average of the FBS concentrations in the upper and lower chambers) and supplemented with vehicle or increasing concentrations of the alkaloids. These wells were not coated with Matrigel. The medium was removed, and the adherent cells were trypsinized and counted 24 h after treatment using a hemocytometer. To compare cell invasion across treatments, cell invasion was corrected for adherent cell proliferation and expressed as % vehicle control.

The next assay relates to MMP-1, -2, -7, -9, -13. Kind of assay: Luminex assay of MMP secretion in HCT-116 and LoVo cell supernatants. As to conditions: 0.08 µM; 24 h; both cell lines (HCT-116, LoVo). The text has this: We ordered a customized Luminex® assay to quantify 15 targets at once from Biotechne (reference LXSAHM-15; R&D Systems, Abingdon, U.K.). The 15 targets were chosen on the basis of the literature as follows: the relevant metalloproteinases MMP-1, -2, -7, -9, -13 [49] and the cytokines associated with dismal prognosis or shorter disease-free survival period: C-C motif chemokine ligand (CCL) -4, CCL-22, Flt-3 ligand, IL-1β, IL-2, IL-6, IL-8, interferon gamma (IFNγ), vascular endothelial growth factor (VEGF), and pentraxin-3 [50]. Samples were prepared as follows: HCT-116 or LoVo cells were seeded in 6-well plates and allowed to adhere and grow until they reached 70% confluency. The culture medium was replaced by 1.5 mL of culture medium containing only 0.5% of FBS with or without the compounds to be tested (NAR at 80 nM, LYC at 6 µM, and HAE at 6 µM). After 24 h of treatment, supernatants were collected, aliquoted, and kept frozen at −80 °C. Three independent series of samples were prepared. […] We thus decided to concentrate several aliquots of our supernatant samples by centrifugation of 500 µL of supernatant with Amicon Ultra 0.5 mL filters characterized by a 3 kDa cut-off (UFC500324; Millipore, Merck, Hoeilaart, Belgium) leading to a final volume of 150 µL (3.3 times concentrated). The Luminex® assay was conducted according to manufacturer’s recommendations. Data were collected on a Bioplex-200 (Bio-Rad, Temse, Belgium).

For `O=C1N[C@@H]2C(=C[C@H](O)[C@@H](O)[C@H]2O)c2cc3c(c(O)c21)OCO3` [NAR, narciclasine], the IC50 in the assay on HCT-116^+/+ was 23 nM; in the assay on HCT-116^-/-, 29 nM; with DLD-1, 30 nM. The “cell invasion, % of vehicle control” value amounted to 41.1 ± 4.3% in the assay on HCT-116 cells (0.04 µM) and 13.6 ± 4.8% in the assay on HCT-116 cells (0.08 µM). In addition, in the assay on MMP-1, -2, -7, -9, -13, the “secretion of MMP-1, -2, and -7” value was “markedly decrease”.
